“And” between values parts separate entries of the source, which are not always exact repeats. Identical values can stand only once.
Experiments:
HEK293T cells = assay: WST-8 cytotoxicity assay, HEK293T; type: cell-based, human; conditions: for rel. absorbance (450 nm): HEK293T, WST-8, vs DMSO ctrl
Description: (§1) Each sample was prepared in four biologically independent repeats. After incubation for 24 h, the medium was refreshed and 10% water-soluble tetrazolinum salt (Cell Counting Kit-8, MedChemExpress) was added to assess metabolic activity. After 4 h, absorbance was measured at 450 nm using a Tecan Spark Cyto instrument (Tecan).

Nurr1 = tested on: Nurr1; set-up: method as in PMID 26124091; conditions: read-out: EC50 (Nurr1 agonism); cited from earlier work
N27 rat neurons = assay: WST-8 cytotoxicity assay, N27; type: cell-based
Description: as §1

[1] = molecular target: T1, human full-length Nurr1 homodimer (NurRE) (Homo sapiens, UniProt P43354); assay: Full-length Nurr1 reporter gene assay (NurRE); type: cell-based; conditions: 10 nM to 3 µM
T1 construct: The full-length human nuclear receptor Nurr1 (pcDNA3.1-hNurr1-NE; Addgene plasmid #102363); host or cells: HEK293T
T1 sequence (P43354 whole entry): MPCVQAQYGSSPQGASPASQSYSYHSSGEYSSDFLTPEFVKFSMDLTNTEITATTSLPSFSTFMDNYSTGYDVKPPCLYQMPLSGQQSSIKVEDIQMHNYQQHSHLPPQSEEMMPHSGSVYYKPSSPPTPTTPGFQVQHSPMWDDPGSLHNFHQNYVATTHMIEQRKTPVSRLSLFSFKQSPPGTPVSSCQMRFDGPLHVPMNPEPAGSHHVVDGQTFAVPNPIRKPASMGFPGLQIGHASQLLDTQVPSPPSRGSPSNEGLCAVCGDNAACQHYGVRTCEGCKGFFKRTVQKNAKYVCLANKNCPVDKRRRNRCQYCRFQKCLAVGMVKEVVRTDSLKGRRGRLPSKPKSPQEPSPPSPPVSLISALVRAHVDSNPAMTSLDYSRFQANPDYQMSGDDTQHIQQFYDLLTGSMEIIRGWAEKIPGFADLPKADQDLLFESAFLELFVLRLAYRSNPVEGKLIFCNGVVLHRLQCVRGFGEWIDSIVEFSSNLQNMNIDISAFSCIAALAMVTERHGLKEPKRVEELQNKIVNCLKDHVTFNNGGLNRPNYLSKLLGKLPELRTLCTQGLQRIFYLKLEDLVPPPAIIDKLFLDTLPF
Description: (§2) Activation of full-length human Nurr1 was studied in transiently transfected HEK293T cells using the reporter plasmids pFR-Luc-NBRE[14], pFR-Luc-POMC[14] or pFR-Luc-DR5[14] each containing one copy of the respective human Nurr1 response element NBRE Nl3, NurRE, or DR5. The full-length human nuclear receptor Nurr1 (pcDNA3.1-hNurr1-NE; Addgene plasmid #102363) and, for DR5, RXRα (pSG5-hRXR)[57] were overexpressed. pRL-SV40 (Promega) was used for the normalization of transfection efficacy and to observe test compound toxicity. […] After 24 h, the medium was changed to Opti-MEM without supplements, and cells were transiently transfected using Lipofectamine LTX reagent (Invitrogen) according to the manufacturer’s protocol. Five hours after transfection, cells were incubated with the test compounds in Opti-MEM supplemented with penicillin (100 U/mL), streptomycin (100 μg/mL) and 0.1% DMSO for 16 h before luciferase activity was measured using the Dual-Glo Luciferase Assay System (Promega) according to the manufacturer’s protocol on a Tecan Spark luminometer (Tecan Deutschland GmbH). Firefly luminescence was divided by Renilla luminescence and multiplied by 1000 resulting in relative light units (RLU) to normalize for transfection efficiency and cell growth. Fold activation was obtained by dividing the mean RLU of the test compound by the mean RLU of the untreated control. All samples were tested in at least three biologically independent experiments in duplicates. For dose-response curve fitting and calculation of EC50 values, the equation “[Agonist] vs. response -- Variable slope (four parameters)” was used in GraphPad Prism (version 7.00, GraphPad Software).

[2] = tested on: full-length human Nurr1 (NBRE); set-up: method as in earlier work; conditions: cited from earlier work
NOR-1 = molecular target: T2, NOR-1 (Homo sapiens, UniProt Q92570); assay: Gal4-NOR-1 hybrid reporter gene assay; type: cell-based; conditions: 10 nM to 3 µM
T2 construct: chimeric receptors composed of the Gal4-DBD and the hinge region and LBD; expressed in transfected cells; host or cells: HEK293T
T2 sequence (Q92570 394-623 limits assumed): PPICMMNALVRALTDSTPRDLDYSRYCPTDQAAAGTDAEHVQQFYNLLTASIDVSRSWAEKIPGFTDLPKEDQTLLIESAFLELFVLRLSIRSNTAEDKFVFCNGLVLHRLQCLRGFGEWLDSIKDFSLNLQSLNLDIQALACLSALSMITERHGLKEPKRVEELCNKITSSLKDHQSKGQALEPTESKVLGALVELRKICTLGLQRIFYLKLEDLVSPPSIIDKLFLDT
Description: (§3) Nurr1 modulation was determined in a Gal4 hybrid reporter gene assay in HEK293T cells (German Collection of Microorganisms and Cell Culture GmbH, DSMZ) using pFR-Luc (Stratagene, La Jolla, CA, USA; reporter), pRL-SV40 (Promega, Madison, WI, USA; internal control) and pFA-CMV-hNurr1-LBD[14], coding for the hinge region and ligand binding domain of the canonical isoform of human Nurr1. […] After 24 h, the medium was changed to Opti-MEM without supplements, and cells were transiently transfected using Lipofectamine LTX reagent (Invitrogen, Carlsbad, CA, USA) according to the manufacturer’s protocol. Five hours after transfection, cells were incubated with the test compounds in Opti-MEM supplemented with penicillin (100 U/mL), streptomycin (100 μg/mL), and 0.1% DMSO for 16 h before luciferase activity was measured using the Dual-Glo Luciferase Assay System (Promega) according to the manufacturer’s protocol on a Tecan Spark luminometer (Tecan Deutschland GmbH, Crailsheim, Germany). Firefly luminescence was divided by Renilla luminescence and multiplied by 1000 resulting in relative light units (RLU) to normalize for transfection efficiency and cell growth. Fold activation was obtained by dividing the mean RLU of the test compound by the mean RLU of the untreated control. All samples were tested in at least three biologically independent experiments in duplicates. For dose-response curve fitting and calculation of EC50 values, the equation “[Agonist] vs. response -- Variable slope (four parameters)” was used in GraphPad Prism (version 7.00, GraphPad Software, La Jolla, CA, USA). Selectivity profiling was performed with identical procedures using pFA-CMV-Nur77-LBD[14], pFA-CMV-NOR-1-LBD[14], pFA-CMV-THRα-LBD[51], pFA-CMV-RARα-LBD[52], pFA-CMV-PPARα-LBD[53], pFA-CMV-PPARγ-LBD[53], pFA-CMV-PPARδ-LBD[53], pFA-CMV-LXRα-LBD[54], pFA-CMV-FXR-LBD[55] and pFA-CMV-hRXRα-LBD[56].

[3] = molecular target: T3, human Nurr1 (hinge region and ligand binding domain) (Homo sapiens, UniProt P43354); assay: Gal4-Nurr1 hybrid reporter gene assay; type: cell-based
T3 construct: expressed in transfected cells; host or cells: HEK293T
T3 sequence (P43354 360-595 limits assumed): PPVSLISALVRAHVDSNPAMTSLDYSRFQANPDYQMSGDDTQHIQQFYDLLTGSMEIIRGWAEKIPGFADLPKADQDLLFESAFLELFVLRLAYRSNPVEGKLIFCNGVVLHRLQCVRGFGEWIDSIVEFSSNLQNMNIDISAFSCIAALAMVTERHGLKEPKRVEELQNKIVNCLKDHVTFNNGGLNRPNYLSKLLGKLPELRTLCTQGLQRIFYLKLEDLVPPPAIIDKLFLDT
Description: as §3

Nurr1 LBD = molecular target: T4, Nurr1 LBD (Homo sapiens, UniProt P43354); assay: Isothermal titration calorimetry (ITC); type: binding; conditions: 25 °C
T4 construct: Nurr1 LBD protein (5–30 µM, expressed as described previously[21]); made in house
T4 sequence (P43354 360-595 limits assumed): as above
Description: ITC experiments were conducted on an Affinity ITC instrument (TA Instruments, New Castle, DE) at 25 °C with a stirring rate of 75 rpm. Nurr1 LBD protein (5–30 µM, expressed as described previously[21]) in buffer (20 mM Tris pH 7.5, 100 mM NaCl, 5% glycerol) containing 1–4% DMSO was titrated with the test compounds (30–150 μM in the same buffer containing 1-4% DMSO) in 26 injections (1 × 1 µL, 25 × 3-4 μL) with an injection interval of 120-150 s. As control experiments, the test compounds were titrated to the buffer, and the buffer was titrated to the Nurr1 LBD protein under otherwise identical conditions. Results were analyzed using NanoAnalyze software (version 3.11.0, TA Instruments, New Castle, DE) with independent binding models.

Nur77 = molecular target: T5, Nur77 (Homo sapiens, UniProt P22736); assay: Gal4-Nur77 hybrid reporter gene assay; type: cell-based; conditions: 10 nM to 3 µM
T5 construct: chimeric receptors composed of the Gal4-DBD and the hinge region and LBD; expressed in transfected cells; host or cells: HEK293T
T5 sequence (P22736 360-595 limits assumed): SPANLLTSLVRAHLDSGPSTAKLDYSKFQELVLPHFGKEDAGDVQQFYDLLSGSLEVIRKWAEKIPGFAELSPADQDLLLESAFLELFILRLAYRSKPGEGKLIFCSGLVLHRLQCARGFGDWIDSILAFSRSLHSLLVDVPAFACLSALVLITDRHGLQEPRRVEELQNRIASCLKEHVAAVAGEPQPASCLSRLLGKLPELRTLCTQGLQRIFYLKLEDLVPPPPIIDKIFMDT
Description: as §3

[4] = molecular target: T6, human full-length Nurr1 monomer (NBRE) (Homo sapiens, UniProt P43354); assay: Full-length Nurr1 reporter gene assay (NBRE); type: cell-based; conditions: 10 nM to 3 µM
T6 construct: The full-length human nuclear receptor Nurr1 (pcDNA3.1-hNurr1-NE; Addgene plasmid #102363); host or cells: HEK293T
T6 sequence (P43354 whole entry): as the sequence (P43354 whole entry) above
Description: as §2

[5] = molecular target: T7, Nurr1-RXR heterodimer (DR5) (Homo sapiens, UniProt P43354); assay: Full-length Nurr1 reporter gene assay (DR5); type: cell-based; conditions: 10 nM to 3 µM
T7 construct: The full-length human nuclear receptor Nurr1 (pcDNA3.1-hNurr1-NE; Addgene plasmid #102363); host or cells: HEK293T
T7 sequence (P43354 whole entry): as above
T7 sequence (P19793 whole entry partner): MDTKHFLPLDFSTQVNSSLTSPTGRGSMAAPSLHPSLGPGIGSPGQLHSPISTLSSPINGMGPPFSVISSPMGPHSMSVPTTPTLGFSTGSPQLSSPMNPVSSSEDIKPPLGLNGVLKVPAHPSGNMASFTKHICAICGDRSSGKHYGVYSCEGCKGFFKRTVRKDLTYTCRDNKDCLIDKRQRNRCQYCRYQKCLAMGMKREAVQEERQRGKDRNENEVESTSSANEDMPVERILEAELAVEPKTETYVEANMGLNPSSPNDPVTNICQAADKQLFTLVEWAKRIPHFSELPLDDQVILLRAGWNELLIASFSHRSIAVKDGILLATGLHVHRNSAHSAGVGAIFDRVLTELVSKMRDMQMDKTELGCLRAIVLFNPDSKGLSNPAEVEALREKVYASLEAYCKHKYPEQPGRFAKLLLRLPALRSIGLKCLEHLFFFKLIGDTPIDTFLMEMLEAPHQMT
Description: Activation of full-length human Nurr1 was studied in transiently transfected HEK293T cells using the reporter plasmids pFR-Luc-NBRE[14], pFR-Luc-POMC[14] or pFR-Luc-DR5[14] each containing one copy of the respective human Nurr1 response element NBRE Nl3, NurRE, or DR5. […] After 24 h, the medium was changed to Opti-MEM without supplements, and cells were transiently transfected using Lipofectamine LTX reagent (Invitrogen) according to the manufacturer’s protocol. Five hours after transfection, cells were incubated with the test compounds in Opti-MEM supplemented with penicillin (100 U/mL), streptomycin (100 μg/mL) and 0.1% DMSO for 16 h before luciferase activity was measured using the Dual-Glo Luciferase Assay System (Promega) according to the manufacturer’s protocol on a Tecan Spark luminometer (Tecan Deutschland GmbH). Firefly luminescence was divided by Renilla luminescence and multiplied by 1000 resulting in relative light units (RLU) to normalize for transfection efficiency and cell growth. Fold activation was obtained by dividing the mean RLU of the test compound by the mean RLU of the untreated control. All samples were tested in at least three biologically independent experiments in duplicates. For dose-response curve fitting and calculation of EC50 values, the equation “[Agonist] vs. response -- Variable slope (four parameters)” was used in GraphPad Prism (version 7.00, GraphPad Software).

activation of full-length Nurr1 on NurRE [1] | activation of NOR1 (NOR-1) | activation of Nurr1 ([3]; Gal4 hybrid reporter, 10 nM to 3 µM) | Kd (Nurr1 LBD) (Nurr1 LBD) | activation of Nur77 (Nur77) | activation of full-length Nurr1 on NBRE [4] | activation of full-length Nurr1 on DR5 [5] | Structure (SMILES) | toxicity (WST-8) (HEK293T cells; HEK293T cells, 24 h) | rel. absorbance (450 nm) (HEK293T cells; 10 µM) | rel. absorbance (450 nm) (HEK293T cells; 30 µM) [%] | EC50 (Nurr1) [µM] | rel. absorbance (450 nm) (N27 rat neurons; N27, 10 µM, WST-8, vs DMSO ctrl) | rel. absorbance (450 nm) / remaining metabolic activity (N27 rat neurons; N27, 30 µM, WST-8, vs DMSO ctrl) | toxicity (WST-8) (N27 rat neurons; N27 rat neurons, 24 h) | EC50 [2] [µM] | cytotoxicity in reporter gene assays ([3]; concentrations higher than 3 µM, drop in renilla luciferase control, HEK293T)
– | – | – | – | – | – | – | CCN(CC)Cc1cc(Nc2ccnc3cc(Cl)ccc23)ccc1O [AQ, amodiaquine] | toxic | 75% and 70% | 47 | ~20 | 37% and 39% and 40% | 21% and 22% and 23% | toxic | – | –
no effect and no | No activation | No activation | potential weak binding | No activation | no effect and no | no effect and no | CC(C)(O)c1cccc(-c2ccc3nc(-c4ccc(Cl)cc4)cn3c2)c1 [SA00025, reference compound] | – | – | – | – | – | – | – | 0.217 | considerably cytotoxic

— PMC11217349, “Development of Nurr1 agonists from amodiaquine by scaffold hopping and fragment growing” (Communications Chemistry, 2024)
